Source: patent publication US20240336654A1, “ANTIMICROBIAL PEPTIDOMIMETICS” (SPEXIS AG, priority 2021, published 2024)
Where a SMILES comes first, the peptide text is derived from it. Bridges are numbered along the chain shown (N, C = ends). [ ]: non-standard residue; d: D form. The star is where a group is joined. Val(Nα-amidino) = CC(C)[C@H](NC(=N)N)C(=O)*; Hyp = O=C(O)[C@@H]1C[C@@H](O)CN1; Cit = NC(=O)NCCC[C@H](N)C(=O)O; Pen = CC(C)(S)[C@H](N)C(=O)O; dDab = NCC[C@@H](N)C(=O)O; Orn = NCCC[C@H](N)C(=O)O; Dab = NCC[C@H](N)C(=O)O

Key:
Assay type in all cases: cell-based
[1] = test system: human red blood cells (hRBC); details: red cells of human, 1 h, 200 μg/mL
Method: Lyophilized peptides were weighed on a Microbalance (Mettler MT5) and dissolved in sterile water to a final concentration of 1 mg/mL. Stock solutions were kept at +4° C., light protected. The peptides were tested for their hemolytic activity against human red blood cells (hRBC). Fresh hRBC were washed three times with phosphate buffered saline (PBS) and centrifuged for 5 min at 3000×g. Compounds (200 μg/mL) were incubated with 20% hRBC (v/v) for 1 h at 37° C. and shaking at 300 rpm. A value of 0% and 100% cell lyses, respectively, was determined by incubation of hRBC in the presence of PBS and 2.5% Triton X-100 in H2O, respectively. The samples were centrifuged, the supernatants were 8-fold diluted in PBS buffer and the optical densities (OD) were measured at 540 nm. The 100% lyses value (OD540H2O) gave an OD540 of approximately 0.5-1.0. Percent hemolysis was calculated as follows: (OD540peptide/OD540H2O)×100%.

[2] = test system: Escherichia coli ATCC 25922; details: ATCC 25922
Method: (§1) Lyophilized peptides were weighed on a Microbalance (Mettler MT5) and dissolved in sterile water to a final concentration of 1 mg/mL. Stock solutions were kept at +4° C., light protected.
(§2) The selective antimicrobial activities of the peptides were determined in 96-well plates (Greiner, polystyrene) by the standard CLSI broth microdilution method (Clinical and Laboratory Standards Institute. Methods for Dilution Antimicrobial Susceptibility Tests for Bacteria That Grow Aerobically; Approved Standard-Ninth Edition. CLSI document M07-A9 (ISBN 1-56238-783-9 [Print]; ISBN 1-56238-784-7 [Electronic]). Clinical and Laboratory Standards Institute, 950 West Valley Road, Suite 2500, Wayne, Pennsylvania 19087, USA, 2012) with slight modifications.
(§3) Colonies of the microorganisms were diluted in saline (0.85%, NaCl) and adjusted using a McFarland reader (bioMérieux SA, Marcy-l'Etoile, France) to 0.5 McFarland standard. Subsequently, the bacterial suspension was diluted in Mueller-Hinton II (MHII, cation adjusted) broth to give approximately 5×10^5 colony forming units (CFU/mL).
(§4) Inocula of the microorganisms were diluted into Mueller-Hinton II (MH, cation adjusted) broth and compared with a 0.5 McFarland standard to give appr. 10^6 colony forming units (CFU)/mL. Aliquots (90 μl) of inoculate were added to 10 μl of water+P-80 (Polysorbate 80, 0.002% final concentration) containing the peptide in serial two-fold dilutions at 10 fold final concentration. The following microorganisms were used to determine antibiotic selectivity of the peptides: Escherichia coli ATCC 25922, Escherichia coli MCR-1 Af 45 and Klebsiella pneumoniae SSI3010. Antimicrobial activities of the peptides were expressed as the minimal inhibitory concentration (MIC) in μg/mL at which no visible growth was observed after 18-20 hours of incubation at 35° C.

[3] = test system: Escherichia coli MCR-1 Af 45; details: MCR-1 Af 45
Method: as §1, §2, §3, §4

[4] = test system: Klebsiella pneumoniae SSI3010; details: SSI3010
Method: as §1, §2, §3, §4

Row | SMILES | Hemolysis at 0.2 g/L [1] [%] | Escherichia coli ATCC 25922 MIC [2] [µg/mL] | Escherichia coli MCR-1 Af45 MIC [3] [µg/mL] | Klebsiella pneumoniae SSI3010 MIC [4] [µg/mL]
1 | CC[C@H](C)[C@H](NC(=O)[C@@H]1C[C@@H](O)CN1C(=O)[C@@H](NC(=N)N)C(C)C)C(=O)N[C@H]1CCNC(=O)CC[C@@H](C(=O)N[C@@H](Cc2ccc(O)cc2)C(=O)O)NC(=O)[C@H](CCN)NC(=O)[C@H](CCN)NC(=O)[C@H](CCCNC(N)=O)NC(=O)[C@@H](CCN)NC(=O)[C@H]([C@@H](C)O)NC(=O)[C@H](CCN)NC(=O)[C@H](CCCNC(=N)N)NC(=O)[C@H](CC(N)=O)NC(=O)[C@H]([C@@H](C)O)NC(=O)[C@H](Cc2ccc(O)cc2)NC1=O [Example 114, Gua-Val-Hyp-Ile-Dab-Tyr-Thr-Asn-Arg-Dab-Thr-^DDab-Cit-Dab-Dab-Glu-Tyr] ({Val(Nα-amidino)}-[Hyp]I[Dab]YTNR[Dab]T[dDab][Cit][Dab][Dab]EY-OH; lactam 3-14) | <1 | 0.125 | 0.125 | 0.5
2 | CC[C@H](C)[C@H](NC(=O)[C@@H]1C[C@@H](O)CN1C(=O)[C@@H](N)C(C)C)C(=O)N[C@@H]1C(=O)N[C@@H](Cc2ccc(O)cc2)C(=O)N[C@@H](CO)C(=O)N[C@@H](CC(N)=O)C(=O)N[C@@H](CCCNC(=N)N)C(=O)N[C@@H](CCN)C(=O)N[C@@H]([C@@H](C)O)C(=O)N[C@H](CCN)C(=O)N[C@@H](CC(N)=O)C(=O)N[C@@H](CCN)C(=O)N[C@@H](CCN)C(=O)N[C@H](C(=O)N[C@@H](Cc2ccc(O)cc2)C(=O)O)CSSC1(C)C [Example 43, Val-Hyp-Ile-Pen-Tyr-Ser-Asn-Arg-Dab-Thr-^DDab-Asn-Dab-Dab-Cys-Tyr] (H-V[Hyp]I[Pen]YSNR[Dab]T[dDab]N[Dab][Dab]CY-OH; disulfide 4-15) | <1 | 0.25 | 0.25 | 0.5
3 | CC[C@H](C)[C@H](NC(=O)[C@@H]1C[C@@H](O)CN1C(=O)[C@@H](N)C(C)C)C(=O)N[C@@H]1C(=O)N[C@@H](Cc2ccc(O)cc2)C(=O)N[C@@H](CO)C(=O)N[C@@H](CC(N)=O)C(=O)N[C@@H](CCCNC(=N)N)C(=O)N[C@@H](CCCNC(N)=O)C(=O)N[C@@H]([C@@H](C)O)C(=O)N[C@H](CCN)C(=O)N[C@@H](CCCCN)C(=O)N[C@@H](CCN)C(=O)N[C@@H](CCN)C(=O)N[C@H](C(=O)N[C@@H](Cc2ccc(O)cc2)C(=O)O)CSSC1(C)C [Example 27, Val-Hyp-Ile-Pen-Tyr-Ser-Asn-Arg-Cit-Thr-^DDab-Lys-Dab-Dab-Cys-Tyr] (H-V[Hyp]I[Pen]YSNR[Cit]T[dDab]K[Dab][Dab]CY-OH; disulfide 4-15) | <1 | 0.25 | 0.25 | 0.5
4 | CC[C@H](C)[C@H](NC(=O)[C@@H]1C[C@@H](O)CN1C(=O)[C@@H](N)C(C)C)C(=O)N[C@@H]1C(=O)N[C@@H](Cc2ccc(O)cc2)C(=O)N[C@@H](CO)C(=O)N[C@@H](CC(N)=O)C(=O)N[C@@H](CCCNC(=N)N)C(=O)N[C@@H](CCN)C(=O)N[C@@H]([C@@H](C)O)C(=O)N[C@H](CCN)C(=O)N[C@@H](CCCCN)C(=O)N[C@@H](CCN)C(=O)N[C@@H](CCCNC(N)=O)C(=O)N[C@H](C(=O)N[C@@H](Cc2ccc(O)cc2)C(=O)O)CSSC1(C)C [Example 59, Val-Hyp-Ile-Pen-Tyr-Ser-Asn-Arg-Dab-Thr-^DDab-Lys-Dab-Cit-Cys-Tyr] (H-V[Hyp]I[Pen]YSNR[Dab]T[dDab]K[Dab][Cit]CY-OH; disulfide 4-15) | <1 | 0.25 | 0.25 | 0.5
5 | CC[C@H](C)[C@H](NC(=O)[C@@H]1C[C@@H](O)CN1C(=O)[C@@H](NC(=N)N)C(C)C)C(=O)N[C@@H]1C(=O)N[C@@H](Cc2ccc(O)cc2)C(=O)N[C@@H]([C@@H](C)O)C(=O)N[C@@H](CC(N)=O)C(=O)N[C@@H](CCCNC(=N)N)C(=O)N[C@@H](CCN)C(=O)N[C@@H]([C@@H](C)O)C(=O)N[C@H](CCN)C(=O)N[C@@H](CO)C(=O)N[C@@H](CCN)C(=O)N[C@@H](CCCN)C(=O)N[C@H](C(=O)N[C@@H](Cc2ccc(O)cc2)C(=O)O)CSSC1(C)C [Example 100, Gua-Val-Hyp-Ile-Pen-Tyr-Thr-Asn-Arg-Dab-Thr-^DDab-Ser-Dab-Orn-Cys-Tyr] ({Val(Nα-amidino)}-[Hyp]I[Pen]YTNR[Dab]T[dDab]S[Dab][Orn]CY-OH; disulfide 3-14) | <1 | 0.25 | 0.25 | 0.5
6 | CC[C@H](C)[C@H](NC(=O)[C@@H]1C[C@@H](O)CN1C(=O)[C@@H](N)C(C)C)C(=O)N[C@@H]1C(=O)N[C@@H](Cc2ccc(O)cc2)C(=O)N[C@@H](CO)C(=O)N[C@@H](CC(N)=O)C(=O)N[C@@H](CCCNC(=N)N)C(=O)N[C@@H](CCN)C(=O)N[C@@H]([C@@H](C)O)C(=O)N[C@H](CCCNC(=N)N)C(=O)N[C@@H](CCCCN)C(=O)N[C@@H](CCN)C(=O)N[C@@H](CCN)C(=O)N[C@H](C(=O)N[C@@H](Cc2ccc(O)cc2)C(=O)O)CSSC1(C)C [Example 36, Val-Hyp-Ile-Pen-Tyr-Ser-Asn-Arg-Dab-Thr-^DArg-Lys-Dab-Dab-Cys-Tyr] (H-V[Hyp]I[Pen]YSNR[Dab]T[dR]K[Dab][Dab]CY-OH; disulfide 4-15) | <1 | 0.125 | 0.125 | 0.125
7 | CC[C@H](C)[C@H](NC(=O)[C@@H]1C[C@@H](O)CN1C(=O)[C@@H](N)C(C)C)C(=O)N[C@@H]1C(=O)N[C@@H](Cc2ccc(O)cc2)C(=O)N[C@@H](CO)C(=O)N[C@@H](CC(N)=O)C(=O)N[C@@H](CCCNC(=N)N)C(=O)N[C@@H](CCN)C(=O)N[C@@H]([C@@H](C)O)C(=O)N[C@H](CCN)C(=O)N[C@@H](CCCCN)C(=O)N[C@@H](CCCNC(=N)N)C(=O)N[C@@H](CCN)C(=O)N[C@H](C(=O)N[C@@H](Cc2ccc(O)cc2)C(=O)O)CSSC1(C)C [Example 54, Val-Hyp-Ile-Pen-Tyr-Ser-Asn-Arg-Dab-Thr-^DDab-Lys-Arg-Dab-Cys-Tyr] (H-V[Hyp]I[Pen]YSNR[Dab]T[dDab]KR[Dab]CY-OH; disulfide 4-15) | <1 | 0.125 | 0.0625 | 0.25
8 | CC[C@H](C)[C@H](NC(=O)[C@@H]1C[C@@H](O)CN1C(=O)[C@@H](N)C(C)C)C(=O)N[C@@H]1C(=O)N[C@@H](Cc2ccc(O)cc2)C(=O)N[C@@H](CO)C(=O)N[C@@H](CC(N)=O)C(=O)N[C@@H](CCCNC(=N)N)C(=O)N[C@@H](CCN)C(=O)N[C@@H]([C@@H](C)O)C(=O)N[C@H](CCN)C(=O)N[C@@H](CCCCN)C(=O)N[C@@H](CO)C(=O)N[C@@H](CCN)C(=O)N[C@H](C(=O)N[C@@H](Cc2ccc(O)cc2)C(=O)O)CSSC1(C)C [Example 47, Val-Hyp-Ile-Pen-Tyr-Ser-Asn-Arg-Dab-Thr-^DDab-Lys-Ser-Dab-Cys-Tyr] (H-V[Hyp]I[Pen]YSNR[Dab]T[dDab]KS[Dab]CY-OH; disulfide 4-15) | <1 | 0.25 | 0.25 | 0.5
